In ChEMBL document CHEMBL2150933 (J Med Chem, 2012):

Columns and labels:
Format in all cases: functional
COLO 205 [1] = test: Cytotoxicity against human COLO205 cells after 48 hrs by SRB assay; conditions: COLO 205, 48 h
MDA-MB-231 = test: Cytotoxicity against human MDA-MB-231 cells after 48 hrs by SRB assay; conditions: MDA-MB-231, 48 h
A549 [2] = test: Cytotoxicity against human A549 cells after 48 hrs by SRB assay; conditions: A549, 48 h
[3] = Cytotoxicity against human 786-O cells after 48 hrs by SRB assay; conditions: 786-0, 48 h
COLO 205 [4] = test: Cytotoxicity against human COLO205 cells after 72 hrs by MTT assay; conditions: COLO 205, 72 h
BXPC-3 = test: Cytotoxicity against human BxPC3 cells after 72 hrs by MTT assay; conditions: BXPC-3, 72 h
A549 [5] = test: Cytotoxicity against human A549 cells after 72 hrs by MTT assay; conditions: A549, 72 h
IGROV-1 = test: Cytotoxicity against human IGROV1 cells after 48 hrs by SRB assay; conditions: IGROV-1, 48 h, read-out: GI50
U-251 = test: Cytotoxicity against human U251 cells after 48 hrs by SRB assay; conditions: U-251, 48 h, read-out: GI50
SF-295 = test: Cytotoxicity against human SF295 cells after 48 hrs by SRB assay; conditions: SF-295, 48 h, read-out: GI50
OVCAR-8 = test: Cytotoxicity against human OVCAR8 cells after 48 hrs by SRB assay; conditions: OVCAR-8, 48 h, read-out: GI50
SK-MEL-5 = test: Cytotoxicity against human SK-MEL-5 cells after 48 hrs by SRB assay; conditions: SK-MEL-5, 48 h, read-out: GI50

Compound | GI50 (COLO 205 [1]; read-out: pGI50 (converted)) | GI50 (MDA-MB-231; read-out: pGI50 (converted)) | GI50 (A549 [2]; read-out: pGI50 (converted)) | GI50 [3] | GI50 (COLO 205 [4]) | GI50 (BXPC-3) | GI50 (A549 [5]) | GI50 (IGROV-1) | GI50 (COLO 205 [1]; read-out: GI50) | GI50 (MDA-MB-231; read-out: GI50) | GI50 (A549 [2]; read-out: GI50) | GI50 (U-251) | GI50 (SF-295) | GI50 (OVCAR-8) | GI50 (SK-MEL-5)
CO[C@H](C(=O)C(C)=O)[C@@H]1Cc2cc3cc(O[C@H]4C[C@@H](O[C@H]5C[C@@H](O)[C@H](O)[C@@H](C)O5)[C@H](O)[C@@H](C)O4)c(C)c(O)c3c(O)c2C(=O)[C@H]1O[C@H]1C[C@@H](O[C@H]2C[C@@H](O)[C@H](O)[C@@H](C)O2)[C@H](O)[C@@H](C)O1 | 83.2 nM | 240 nM | 170 nM | 166 nM | 300 nM | 300 nM | 300 nM | – | – | – | – | – | – | – | –
CO[C@H](C(=O)[C@@H](O)[C@@H](C)O)[C@@H]1Cc2cc3cc(O[C@H]4C[C@@H](O[C@@H]5C[C@@H](O)[C@H](O)[C@@H](C)O5)[C@H](O)[C@@H](C)O4)c(C)c(O)c3c(O)c2C(=O)[C@H]1O[C@H]1C[C@@H](O[C@@H]2C[C@@H](O)[C@@H](O[C@@H]3C[C@](C)(O)[C@H](O)[C@@H](C)O3)[C@@H](C)O2)[C@H](O)[C@@H](C)O1 [PLICAMYCIN] | – | – | – | – | – | – | – | 158 nM | 63 nM | 166 nM | 79 nM | 63 nM | 79 nM | 79 nM | 63 nM
